# Source: patent US20090143317A1, “Quercetin Glycoside Composition and Method of Preparing the Same” (Suntory Limited, priority 2004, published 2009)
# Columns and labels:
# [1] = in vivo; cited from earlier work
# [2] = Measurement of migration into the blood (orally administered in vivo absorbability); set-up: species or system SD male rats; conditions: rat, po, 150 umol/kg
# Description: Blood was collected from the tail vein 0 minutes (before the administration), 30 minutes, 1 hour, and 3 hours after the administration, and heparin was added thereto. Centrifugation was then performed, and, from the supernatant, heparin plasma samples were prepared. The concentrations of quercetin-glucuronide conjugate and quercetin in the prepared heparin plasma samples were measured by HPLC under the following conditions. AUC (Area under the curve) (0 to 3 hr) (μg/ml·hr) was then calculated based on the area under the curve of the plasma concentration of quercetin-glucuronide conjugate (μg/ml) and the area under the curve of the plasma concentration of quercetin (μg/ml). Quercetin-glucuronide conjugate and quercetin are both in vivo metabolites of isoquercitrin. […] Subsequently, in the same manner as in Experiment 1, plasma was prepared, and the plasma concentration of quercetin-glucuronide conjugate and that of quercetin were measured by HPLC. […] Subsequently, in the same manner as in Experiment 1, plasma was prepared, and the plasma concentration of quercetin-glucuronide conjugate and that of quercetin were measured by HPLC. AUC (Area under the curve) (0 to 3 hr) (μg/ml·hr) was then calculated based on the area under the curve of the plasma concentration of quercetin-glucuronide conjugate (μg/ml) and the area under the curve of the plasma concentration of quercetin (μg/ml). […]
"migration into the blood (orally administered in vivo absorbability), AUC (0 to 3 hr) of plasma quercetin-glucuronide conjugate plus quercetin [2]",Structure (SMILES),absorbability [1]
,"O=c1c(O[C@@H]2O[C@H](CO)[C@@H](O)[C@H](O)[C@H]2O)c(-c2ccc(O[C@@H]3O[C@H](CO)[C@@H](O)[C@H](O)[C@H]3O)c(O)c2)oc2cc(O)cc(O)c12 [Quercetin-3,4′-β-D-glucoside]",higher absorbability
higher absorbability in this order,O=c1c(OC2OC(CO)C(OC3OC(CO)C(O)C(O)C3O)C(O)C2O)c(-c2ccc(O)c(O)c2)oc2cc(O)cc(O)c12 (centres unmarked) [IQC-G1],
,O=c1c(O)c(-c2ccc(O[C@@H]3O[C@H](CO)[C@@H](O)[C@H](O)[C@H]3O)c(O)c2)oc2cc(O)cc(O)c12 [Quercetin-4′-β-D-glucoside],higher absorbability
reduce absorbability,"O=c1c(O[C@@H]2O[C@H](CO)[C@@H](O)[C@H](O)[C@H]2O)c(-c2ccc(O)c(O)c2)oc2cc(O)cc(O)c12 [IQC, quercetin 3-O-μ-D-glucopyranoside]",higher absorbability than quercetin and rutin
